# Data reported in publication PMC9057582, “HIF inhibitor 32-134D eradicates murine hepatocellular carcinoma in combination with anti-PD1 therapy” (The Journal of Clinical Investigation, 2022).
# Assays:
# [1] = tested on: Hep3B tumor xenograft; experiment: Analysis of Hep3B xenograft tumors (immunoblot, RT-qPCR, ELISA, CD31 immunohistochemistry); type: in vivo, nude (nu/nu) mice
# Text: Figure 2 Effect of 32-134D on Hep3B tumor xenograft growth and vascularization. (A) Female nude mice received a subcutaneous injection of […] Hep3B cells. When tumors reached a volume of 150 mm^3 (designated treatment day 1), the mice were randomized to receive a daily intraperitoneal injection of 32-134D at a dose of 0 (blue), 20 (black), 40 (red), or 80 (green) mg/kg. Data are presented as mean tumor volume (± SEM; n = 4 each). **P < 0.01, ***P < 0.001 (ANOVA with Bonferroni’s post hoc test). (B) Gross pathology of tumors harvested from vehicle-treated (top panel) and 32-134D–treated (bottom panel) mice. (C) Nuclear extracts prepared from tumors were assayed by immunoblotting using antibodies against the indicated proteins. (D) Total RNA was isolated from tumor tissue and analyzed by RT-qPCR using primers specific for the indicated mRNAs and results (mean ± SEM, n = 4) were normalized to the mean value for tumors from vehicle-treated mice. (E) ELISA for the indicated proteins was performed using aliquots of tumor lysates (mean ± SEM; n = 3–4 tumors each). *P < 0.05 (Mann-Whitney test). (F) Formalin-fixed and paraffin-embedded tumor sections were analyzed by immunohistochemistry using an antibody against CD31 to identify vascular endothelial cells. Scale bar: 100 μm. The total CD31^+ vessel area per field was quantified using ImageJ (mean ± SEM; n = 4 tumors with 5 sections per tumor). *P < 0.05 (Student’s t test).
# Intratumoral HIF-1β protein levels were not affected by treatment with 32-134D (Supplemental Figure 5E).
# Female nude mice (NCI Athymic NCr-nu/nu) and male C57L mice were purchased from Charles River and The Jackson Laboratory, respectively. Hep3B (8 × 10^6) and Hepa1-6 (1 × 10^7) cells were resuspended in PBS and Matrigel (1:1, vol/vol) and implanted subcutaneously in 6- to 8-week-old mice, and tumor volume was calculated as V = abc × 0.52. For Hep3B tumor studies, once tumors reached 100 to 150 mm^3, mice were randomized into groups to receive daily intraperitoneal injection of either 32-134D or vehicle only (20% PEG-400, 10% Cremophor EL, 10% ethanol in PBS). For Hepa1-6 tumors, mice were randomized to receive treatment once tumors became palpable (tumor eradication experiment) or reached a volume of 200 mm^3 (harvesting of tumors for flow cytometry and analysis of RNA and protein expression). Tumors were harvested 4 hours after the last treatment (see Supplemental Table 6 for reagent sources).
# Tumor samples were fixed in 10% formalin in phosphate buffer for 24 hours and placed in PBS the following day for paraffin embedding and sectioning. Anti-CD31 immunohistochemical staining, hematoxylin and eosin counterstaining, and whole-slide scanning were performed by NDB Bio (www.ndbbio.com).
# Tumors were homogenized in ice-cold PBS supplemented with 1% Triton X-100 and PIs, centrifuged at 10,000g for 20 minutes to pellet debris, and the supernatant was collected for ELISA using commercial kits (Supplemental Table 6). Optical density was obtained at 450 nm (corrected for readings at 570 nm) using the VICTOR Nivo plate reader. Sample protein concentration was calculated by linear regression from a standard curve.
# [2] = tested on: Hepa1-6 mouse HCC cells; experiment: RT-qPCR of hypoxia-induced gene expression in Hepa1-6 cells; type: cell-based; details: Hepa1-6, 1% O2, 24 hours
# Protocol: Next, we analyzed Hepa1-6, which is a mouse HCC cell line. […] CXCL1, IL-6, and IL-10 were not induced by hypoxia, whereas hypoxia-induced IL-22 expression was inhibited by 32-134D (P < 0.05; Figure 3C).
# Figure 3 Effect of 32-134D treatment on hypoxia-induced gene expression in Hepa1-6 cells. (A–C) Cells were exposed to 20% O2 and vehicle (white bars), 1% O2 and vehicle (blue bars), or 1% O2 and 32-134D (red bars) for 24 hours and mRNAs were quantified by RT-qPCR and normalized to white (mean ± SEM, n = 4). *P < 0.05 versus white; ^#P < 0.05 versus blue (ANOVA with Bonferroni’s post hoc test).
# RNA was extracted using TRIzol Reagent. Quantitative real-time PCR was conducted using SYBR Green PCR Master Mix and reactions were run using a Bio-Rad thermal cycler. Primer sequences and reagent sources are listed in Supplemental Table 5. The mRNA expression of target genes was normalized to the expression of 18S rRNA and the fold change (FC) was calculated based on the threshold cycle (Ct) as FC = 2^–Δ(ΔCt), where ΔCt = Cttarget gene – Ct18S rRNA and Δ(ΔCt) = ΔCttreatment – ΔCtcontrol. For RNA-seq, total RNA was isolated and treated with DNase (Qiagen). The JHU GRCF High-Throughput Sequencing facility prepared libraries and performed RNA-seq. The RNA-seq data were processed and interpreted using Genialis Expressions software (https://www.genialis.com/expressions/). An automated data analysis pipeline run in the Genialis platform consisted of the following: Sequence quality checks were performed on raw and trimmed reads with FastQC. Bbduk was used to trim adapters and filter out poor quality reads. Trimmed reads were then mapped to the STAR index (ENSEMBL 100) reference genome using the STAR ([93]) aligner. Gene expression levels were quantified with featureCounts ([94]), and differential gene expression analyses were performed with DESeq2 ([95]). […] Differential expression was determined with an FDR of less than 0.05 and mRNA FC of greater than 1.5 to identify hypoxia-induced genes and genes inhibited by 32-134D. Data used in this study have been deposited in the NCBI Gene Expression Omnibus database (GEO GSE195997).
# Supplemental Figure 7. Effect of 32-134D on gene expression in Hepa1-6 cells. Cells were exposed to 20% O2 and vehicle (white bar) or 1% O2 and vehicle (blue bar), 2.5-10 […]
# for 24 hours and mRNAs were quantified by RT-qPCR and normalized to white (mean + SEM, n = 4). *p < 0.05 vs white; #p < 0.05 vs blue (ANOVA with Bonferroni post-test).
# (1 picture or pasted object on this page, not shown here)
smiles,measurement,setting,value
Brc1ccc2c(-c3csc(-c4c[nH]c5c(Br)cccc45)n3)c[nH]c2c1 [Compound 32-134D],"VEGFA, EPO, SDF-1α and SCF protein in tumor lysates","[1]; ELISA, P < 0.05",significantly decreased expression
same,"tumor mRNA expression of ANGPTL4, EPO, PGF, CD73, PDL1, VEGFA, SDF-1, SCF","[1]; RT-qPCR, P < 0.05",significant decrease
same,intratumoral HIF-1β protein levels,[1]; immunoblot,not affected
same,intratumoral HIF-1α and HIF-2α protein expression,[1]; immunoblot of tumor lysates,almost complete loss
same,CD31+ blood vessel area in tumors,"[1]; immunohistochemistry, P < 0.05",significantly decreased blood vessel area
same,RPL13A mRNA expression,[2],no effect
same,hypoxic induction of PDL1 mRNA,[2],induced in vehicle-treated but not in 32-134D–treated cells
same,"hypoxia-induced ANGPTL4, EPO, PGF, and VEGFA mRNA expression",[2]; 2.5-10 µM,significant dose-dependent inhibition
same,hypoxia-induced IL-22 expression,[2]; P < 0.05,inhibited
same,"hypoxia-induced expression of SLC2A1, LDHA, ENTPD1, and CA9 mRNA",[2]; P < 0.05,inhibited
same,hypoxic induction of B7H4 and TIM3 mRNA,[2]; P < 0.05,hypoxia-induced expression in vehicle-treated but not in 32-134D–treated cells
